ChEMBL document CHEMBL3352475, “Novel dammarane saponins from Gynostemma pentaphyllum and their cytotoxic activities against HepG2 cells” (Bioorg Med Chem Lett, 2014)
Converted amounts (≈) assume the structure as drawn.

Test system: HepG2
Assay: Cytotoxicity against human HepG2 cells after 24 hrs by CCK-8 assay
Type: functional, cell-based
Details: HepG2, 24 h

| SMILES | IC50 [µg/mL] |
| --- | --- |
| C=C(CCC=C(C)C)[C@H]1CC[C@]2(C)[C@@H]1[C@H](O)C[C@@H]1[C@@]3(C)C[C@@H](O)[C@H](O[C@@H]4O[C@H](CO)[C@@H](O)[C@H](O)[C@H]4O[C@@H]4O[C@H](COC(C)=O)[C@@H](O)[C@H](O)[C@H]4O)C(C)(C)[C@@H]3CC[C@]12C | 38 (≈ 46.1 µM) |
| CC(C)=CCC[C@](C)(O)[C@H]1CC[C@]2(C)[C@@H]1[C@H](O)C[C@@H]1[C@@]3(C)CC[C@H](O[C@@H]4O[C@H](CO)[C@@H](O)[C@H](O)[C@H]4O[C@@H]4O[C@H](CO)[C@@H](O)[C@H](O)[C@H]4O)C(C)(C)[C@@H]3CC[C@]12C | 54 (≈ 68.8 µM) |
| CC(=O)OC[C@H]1O[C@@H](O[C@H]2[C@H](O[C@H]3[C@H](O)C[C@]4(C)[C@H]5C[C@@H](O)[C@@H]6[C@@H](/C(C)=C\CC=C(C)C)CC[C@@]6(C)[C@]5(C)CC[C@H]4C3(C)C)O[C@H](CO)[C@@H](O)[C@@H]2O)[C@H](O)[C@@H](O)[C@@H]1O | 40 (≈ 48.5 µM) |
